Source: patent US20070015771A1, “Lonidamine analogs” (Threshold pharmaceuticals, Inc., priority 2004, published 2007)

Key:
DU-145 cells = assay: Antiproliferation assay 3 days, DU-145 cells; type: cell-based; details: 3 day treatment; read-out: Du-145 cell line IC50
Protocol: (§1) To determine the effect of lonidamine analogs thereof on cell proliferation, the antiproliferative activity of these compounds was tested in a multi-well Alamar Blue based assay (at 3 days). Cell growth in the presence and absence of the test compound was compared, as measured by a fluoresence plate reader at excitation 550 nm and emission 590 nm (see Biosource International Inc., Tech Application Notes, Use of Alamar Blue in the measurement of Cell Viability and Toxity, Determining IC50). The following cell lines were tested: PWR-1E cells ((ATCC CRL-11611), 3500 cells/well/200 μl in Keratinocyte SFM medium (Gibco Products, Invitrogen Corporation, Carlsbad, Calif.)); DU-145 cells ((ATCC HTB-81), 4000 cells/well/200 μl in MEM Eagles medium (ATCC, Manassas, Va.)); PC3 cells ((ATCC CRL-1435), 4000 cells/200 μl in Modified HAM's F12 medium (ATCC, Manassas, Va.)); PNt2 cells ((Sigma-Aldrich, 95012613-1 VL), 4000 cells/well/200 μl in RPMI medium (Gibco Products, Invitrogen Corporation, Carlsbad, Calif.), BPH-1 ((DSMZ ACC-143), 4000 cells/well/200 μl in RPMI medium (Gibco Products, Invitrogen Corporation, Carlsbad, Calif), and NCI-H460 cells ((ATCC HTB-177), 4000 cells/well/200 μl in RPMI medium (Gibco Products, Invitrogen Corporation, Carlsbad, Calif.)). The cells were seeded in a 96 well plate in a medium specified above. After 24 hours, these plates were divided into 2 groups—Control group and 3 day treatment group. A test compound was added to each plate in the treatment groups at concentrations of […] as tabulated in Table 1 (in 2 μl 1 of 100% DMSO, final DMSO concentration 1% in all wells). For NCI-H460 cells, test compounds were added to each plate in the treatment groups at concentrations of 600, 300, 100, 30, 10, 3, and 1 μM (in 2 μl of 100% DMSO, final DMSO concentration 1% in all wells). The cells in the 3 day treatment group were incubated for 3 days, followed by staining with AlamarBlue. In the Control group, AlamarBlue was added to the plate at (i) day 0 and (ii) day 3 and measured to establish the control reading. […] For the NCI-H460 cells, the capacity of the cells to proliferate was measured 5 hours after addition of AlamarBlue using the same fluorescence plate reader as stated above.

mouse prostate [1] = assay: Mouse study, 10 days oral, prostate weight; type: in vivo; details: C57B1/6J mice, oral daily for 10 days, 0.2-20 mg/kg
Protocol: The control mice received an equal amount of the vehicle (carboxymethylcellulose). […] Relative weights of entire prostate and individual lobes were calculated by dividing the corresponding absolute weight by the total weight of the mouse. Relative weights of the entire prostate, the dorsal prostate, and the ventral prostate were calculated by dividing the absolute weight by the total weight of the mouse. Relative weights of the left and right testis were calculated by dividing the corresponding absolute weights by the total weights of the mouse.

BPH-1 = assay: Antiproliferation assay 3 days, BPH-1 cells; type: cell-based; details: 3 day treatment; read-out: BPH-1 cell line IC50
Protocol: as §1

LNCaP cells = assay: Cell cycle analysis; type: cell-based, human; details: for % G0/G / % G2/M / % S: 24 h
Protocol: The effect of compound 1 (as described in Example 1 above) on the cell cycle was determined as follows. LNCaP cells (2×10^5 cells/ml/well) were seeded in a 24 well plate. The culture media were removed after 24 h, the cells were trypsinized and centrifuged. The cell pellets were resuspended in 100 μl PBS buffer, after which 300 μl of ice-cold ethanol (96%) added dropwise, and the cells were incubated at 4° C. for at least 24 hr. The cells were centrifuged and the supernatant was discarded. The cell cycle staining reagent (Guava Technologies, Hayward, Calif., USA, 200 μl) was added to each well. The cells were shielded from light and incubated at room temperature for 30 min. The samples were analyzed (Guava PCA-96 instrument, Cytosoft software, Guava Technologies, 25801 Industrial Boulevard, Hayward Calif. 94545-2991, USA) as tabulated below.

mouse prostate [2] = assay: Mouse study, 5 days oral, prostate weight and histomorphology; type: in vivo; details: C57B1/6J mice
Protocol: The effect of Compound 1 on the mouse prostate was determined as follows. Compound 1 was orally administered daily for 5 days to male, C57B1/6J mice, (n=5, 6-8 weeks old) 1 at 2, 5, and 20 mg/kg (as a 1% carboxymethylcellulose formulation). The control mice received an equal amount of the vehicle (carboxymethylcellulose). On day 6 the mice were sacrificed and the entire prostate and the individual lobes (e.g., the dorsal lobe and the ventral lobe) were weighed to measure absolute weights. Relative weights of prostate and individual lobes were calculated by dividing the absolute weight by the total weight of the mouse. Relative weights of the entire prostate, the dorsal prostate, and the ventral prostate were calculated by dividing the absolute weight by the total weight of the mouse. Both the absolute entire prostate and relative entire prostate weights reduced in the 5 and 20 mg/kg groups compared to the control group. The histomorphology of the prostate was also analyzed and compared to that of the control or untreated prostate as illustrated in FIGS. 1-3, showing […].

[3] = oral daily for 5 days, 5 and 20 mg/kg groups vs control

SMILES: O=C(NO)c1nn(Cc2ccc(Cl)cc2Cl)c2ccccc12 [Compound 1]
- IC50 (DU-145 cells): 11 µM
- absolute dorsal prostate weight (FIG. 10) (mouse prostate [1]): dose dependent reduction
- absolute ventral prostate weight (FIG. 9) (mouse prostate [1]): dose dependent reduction
- absolute whole prostate weight (FIG. 11) (mouse prostate [1]): dose dependent reduction
- prostate weight (mouse prostate [1]): dose dependent reduction
- relative dorsal prostate weight (FIG. 7) (mouse prostate [1]): dose dependent reduction
- relative ventral prostate weight (FIG. 8) (mouse prostate [1]): dose dependent reduction
- relative whole prostate weight (FIG. 6) (mouse prostate [1]): dose dependent reduction
- IC50 (BPH-1): 17.5 µM
- effect on the cell cycle (LNCaP cells; 2.5-200 μM): does not have a measurable effect
- % G0/G (LNCaP cells; 2.5 μM): 59%
- % G2/M (LNCaP cells; 2.5 μM): 27%
- % S (LNCaP cells; 2.5 μM): 11%
- % G0/G (LNCaP cells; 7.4 μM): 56%
- % G2/M (LNCaP cells; 7.4 μM): 26%
- % S (LNCaP cells; 7.4 μM): 15%
- % G0/G (LNCaP cells; 22.2 μM): 57%
- % G2/M (LNCaP cells; 22.2 μM): 25%
- % S (LNCaP cells; 22.2 μM): 11%
- % G0/G (LNCaP cells; 66.7 μM): 51%
- % G2/M (LNCaP cells; 66.7 μM): 24%
- % S (LNCaP cells; 66.7 μM): 19%
- % G0/G (LNCaP cells; 200 μM): 41%
- % G2/M (LNCaP cells; 200 μM): 17%
- % S (LNCaP cells; 200 μM): 18%
- histomorphology of the prostate (mouse prostate [2]; oral daily for 5 days, 2, 5, 20 mg/kg): dose-dependent disorganization of the epithelial cells
- absolute entire prostate weight (mouse prostate [2]; [3]): reduced
- relative entire prostate weight (mouse prostate [2]; [3]): reduced
